Assays:
[1] = system: human mesenchymal stem cells (hMSC); assay: Cell differentiation ability by Alizarin red S staining; format: cell-based; conditions: 10 mM, hard tissue-forming medium, 14 days, compared with PBS; FIG. 4A a-c
Experimental: In order to confirm cell differentiation ability of the cell permeable peptide-bone differentiation inducing sequence conjugate by the amount of phosphorylated calcium, human mesenchymal stem cells (hMSC) were seeded in a 24-well plate at 1×10^3/well, and then treated with the cell permeable peptide-bone differentiation inducing sequence conjugate synthesized from Example 1 and the bone differentiation inducing sequence of Comparative Example 2 of […] for each, and then incubated in a hard tissue-forming medium for 14 days. The hard tissue-forming medium contained an MSCBM medium containing 15% FBS (fetal bovine serum), […] of L-ascorbic acid, 10^−7 M dexamethasone, 1% antibiotic-antimycotic solution, and 10 mM beta-glycerol phosphate. After completion of the incubation, the medium was removed, and then the cells were washed with phosphate buffer solution (PBS) twice. The cells were fixed using 90% ethanol at 4° C. for 15 minutes, followed by washing with distilled water twice, and then stained with 2% Alizarin red S Solution (pH 4.2; Alizarin red S powder, Junsei, JAPAN).

[2] = molecular target: T1, Smurf1 (Homo sapiens, UniProt Q9HCE7); assay: Immuno-precipitation and western blot of Smad1/5/8 ubiquitination in hMSC; format: cell-based; conditions: hMSC pre-treated with MG132, 10 mM peptide, 1 hour 30 minutes; compared with MG132 only; FIG. 2B
T1 construct: endogenous in cells; host or cells: human mesenchymal stem cells (hMSC)
T1 sequence (Q9HCE7 whole entry): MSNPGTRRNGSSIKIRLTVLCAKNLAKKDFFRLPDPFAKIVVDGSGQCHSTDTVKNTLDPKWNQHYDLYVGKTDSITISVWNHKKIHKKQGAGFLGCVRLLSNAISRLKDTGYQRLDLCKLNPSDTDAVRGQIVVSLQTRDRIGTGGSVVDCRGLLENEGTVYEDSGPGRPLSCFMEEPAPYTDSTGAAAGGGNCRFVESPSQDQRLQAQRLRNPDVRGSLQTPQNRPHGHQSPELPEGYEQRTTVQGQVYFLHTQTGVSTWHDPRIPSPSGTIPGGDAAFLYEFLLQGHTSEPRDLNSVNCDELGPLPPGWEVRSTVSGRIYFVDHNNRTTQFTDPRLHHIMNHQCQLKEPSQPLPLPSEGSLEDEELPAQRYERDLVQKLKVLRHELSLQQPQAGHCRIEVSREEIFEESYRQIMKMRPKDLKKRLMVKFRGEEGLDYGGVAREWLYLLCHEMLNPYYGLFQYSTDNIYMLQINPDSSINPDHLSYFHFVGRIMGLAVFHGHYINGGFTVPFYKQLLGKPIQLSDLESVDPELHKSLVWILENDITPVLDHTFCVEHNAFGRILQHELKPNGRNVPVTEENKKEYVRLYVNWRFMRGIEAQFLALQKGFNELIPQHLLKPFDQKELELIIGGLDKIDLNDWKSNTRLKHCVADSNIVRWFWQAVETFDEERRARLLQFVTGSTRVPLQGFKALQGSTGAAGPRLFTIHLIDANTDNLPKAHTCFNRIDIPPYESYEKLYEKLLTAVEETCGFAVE
Source text: In order to confirm presence or absence of the active site of the cell permeable peptide-bone differentiation inducing sequence conjugate synthesized by the method in Example 1 for binding to Smurf1, an immuno-precipitation method and a western blot assay method were used. The present experimental method is applied in order to confirm that the cell permeable peptide-bone differentiation inducing sequence conjugate synthesized by the method in Example 1 may suppress a bioactivity of Smurf1 decomposing Smd1/5/8 as one of the E3 ligases playing a role in ubiquitin ligation.
1×10^6 human mesenchymal stem cells (hMSC) used as a model cell in the present experiment were plated in each dish and then cultured in a general medium for 20 hours (overnight incubation). Then the cells was cultured in an hMSC basal medium (MSCBM™, LONZA, USA) containing 0.5% fetal bovine serum (FBS, GIBCO, USA) for 20 hours (overnight starvation). After overnight starvation in 0.5% MSCBM™, […] MG132 (MG132; proteasome inhibitor, Merck, USA) was added to the same medium to allow the cells to be pre-treated for 2 hours. Thereafter, the cell permeable peptide-bone differentiation inducing sequence conjugate synthesized by the method in Example 1 and peptides of Comparative Examples 1 and 2 were injected into each dish at a concentration of […], respectively, and cultured for 1 hour 30 minutes. […]

“NH2-GAPPPADSAP-SSRKKNPNCRRH-C-COONH2 (H-GAPPPADSAPSSRKKNPNCRRHC-NH2; cysteine pairing not given here) [Example 1]” was tested, and the “differentiation into osteoblast, Alizarin red S staining of phosphorylated calcium” value [1] was “relatively strong staining degree of phosphorylated calcium” and the “ubiquitination of Smad1/5/8 (ubiquitin antibody after Smad1/5/8 immuno-precipitation)” value [2] was “ubiquitination of Smad1/5/8 was suppressed”.

Reference: US9023987B2, “Cell-permeable peptide” (Seoul National University R&DB Foundation, priority 2010, dated 2015)
